Assay results as given in ChEMBL document CHEMBL5143733, “Discovery of (E)-3-(3-((2-Cyano-4'-dimethylaminobiphenyl-4-ylmethyl)cyclohexanecarbonylamino)-5-fluorophenyl)acrylic Acid Methyl Ester, an Intestine-Specific, FXR Partial Agonist for the Treatment of Nonalcoholic Steatohepatitis” (J Med Chem, 2022).
Each block holds one molecule with its values, some of them ahead of it. The source made the active and inactive calls. The rule behind the calls is not given here.

Experiments:
[1] = target: Retinoic acid receptor beta (Homo sapiens) (UniProt P10826); experiment: Agonist activity at human RAR-beta expressed in CHO-K1 cells assessed as maximum relative efficacy at 100 uM by PathHunter assay relative to 9-cis-retinoic acid; assay type: cell-based
Sequence of Retinoic acid receptor beta (Homo sapiens) (P10826 whole entry): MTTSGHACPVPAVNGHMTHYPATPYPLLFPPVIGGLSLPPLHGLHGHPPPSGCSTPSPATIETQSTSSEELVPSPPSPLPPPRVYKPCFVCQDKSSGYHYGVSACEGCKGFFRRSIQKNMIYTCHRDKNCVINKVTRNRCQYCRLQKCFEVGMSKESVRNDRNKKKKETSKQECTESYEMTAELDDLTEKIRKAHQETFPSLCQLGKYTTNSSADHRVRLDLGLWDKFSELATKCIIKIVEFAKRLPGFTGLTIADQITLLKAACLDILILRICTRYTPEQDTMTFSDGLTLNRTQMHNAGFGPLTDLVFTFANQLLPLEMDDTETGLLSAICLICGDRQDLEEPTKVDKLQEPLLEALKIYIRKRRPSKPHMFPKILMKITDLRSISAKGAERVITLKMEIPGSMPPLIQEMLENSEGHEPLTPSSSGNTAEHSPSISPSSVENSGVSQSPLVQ

[2] = target: Peroxisome proliferator-activated receptor alpha (Homo sapiens) (UniProt Q07869); experiment: Agonist activity at human PPAR-alpha expressed in CHO-K1 cells assessed as maximum relative efficacy at 100 uM by PathHunter assay relative to GW7647; assay type: cell-based
Sequence of Peroxisome proliferator-activated receptor alpha (Homo sapiens) (Q07869 whole entry): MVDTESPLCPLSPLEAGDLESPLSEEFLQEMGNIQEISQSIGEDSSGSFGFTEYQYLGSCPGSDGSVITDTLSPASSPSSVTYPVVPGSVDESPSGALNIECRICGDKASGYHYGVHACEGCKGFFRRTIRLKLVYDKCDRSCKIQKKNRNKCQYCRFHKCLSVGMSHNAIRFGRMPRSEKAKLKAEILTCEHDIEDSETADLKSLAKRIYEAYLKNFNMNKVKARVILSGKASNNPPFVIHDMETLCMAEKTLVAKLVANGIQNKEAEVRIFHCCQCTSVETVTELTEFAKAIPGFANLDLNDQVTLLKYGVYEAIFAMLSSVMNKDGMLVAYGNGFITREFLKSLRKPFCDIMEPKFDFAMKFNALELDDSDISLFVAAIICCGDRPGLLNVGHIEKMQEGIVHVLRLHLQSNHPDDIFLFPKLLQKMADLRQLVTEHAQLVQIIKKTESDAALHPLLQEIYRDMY

[3] = target: Progesterone receptor (Homo sapiens) (UniProt P06401); experiment: Agonist activity at human PR-beta expressed in U2OS cells assessed as maximum relative efficacy at 100 uM by PathHunter assay relative to norgestrel; assay type: cell-based
Sequence of Progesterone receptor (Homo sapiens) (P06401 whole entry): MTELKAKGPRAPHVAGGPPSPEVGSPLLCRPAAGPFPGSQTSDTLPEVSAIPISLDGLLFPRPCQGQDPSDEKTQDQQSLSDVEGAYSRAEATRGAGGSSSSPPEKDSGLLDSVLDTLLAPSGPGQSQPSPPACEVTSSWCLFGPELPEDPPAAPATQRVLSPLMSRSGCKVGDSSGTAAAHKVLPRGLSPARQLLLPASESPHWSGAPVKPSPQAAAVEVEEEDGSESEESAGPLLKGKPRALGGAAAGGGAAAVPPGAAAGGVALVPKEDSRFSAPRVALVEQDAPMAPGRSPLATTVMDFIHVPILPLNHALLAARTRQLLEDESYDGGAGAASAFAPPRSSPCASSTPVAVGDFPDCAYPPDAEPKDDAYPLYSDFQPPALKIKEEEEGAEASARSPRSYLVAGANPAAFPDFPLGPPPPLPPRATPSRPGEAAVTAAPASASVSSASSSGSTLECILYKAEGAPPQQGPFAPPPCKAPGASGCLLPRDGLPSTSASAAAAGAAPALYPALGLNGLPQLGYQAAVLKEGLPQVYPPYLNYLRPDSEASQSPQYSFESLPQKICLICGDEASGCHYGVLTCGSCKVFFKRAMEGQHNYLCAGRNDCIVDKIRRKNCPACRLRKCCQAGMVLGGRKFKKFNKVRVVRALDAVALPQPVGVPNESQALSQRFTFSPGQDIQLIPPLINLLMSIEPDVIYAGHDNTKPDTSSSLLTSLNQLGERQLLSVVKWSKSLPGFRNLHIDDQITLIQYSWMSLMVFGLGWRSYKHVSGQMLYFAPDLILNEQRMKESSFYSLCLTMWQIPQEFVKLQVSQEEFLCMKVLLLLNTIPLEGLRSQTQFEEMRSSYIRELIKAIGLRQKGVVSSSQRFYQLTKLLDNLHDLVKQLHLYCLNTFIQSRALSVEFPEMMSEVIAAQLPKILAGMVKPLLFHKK

[4] = target: Retinoic acid receptor alpha (Homo sapiens) (UniProt P10276); experiment: Agonist activity at human RAR-alpha expressed in CHO-K1 cells assessed as maximum relative efficacy at 100 uM by PathHunter assay relative to 9-cis-retinoic acid; assay type: cell-based
Sequence of Retinoic acid receptor alpha (Homo sapiens) (P10276 whole entry): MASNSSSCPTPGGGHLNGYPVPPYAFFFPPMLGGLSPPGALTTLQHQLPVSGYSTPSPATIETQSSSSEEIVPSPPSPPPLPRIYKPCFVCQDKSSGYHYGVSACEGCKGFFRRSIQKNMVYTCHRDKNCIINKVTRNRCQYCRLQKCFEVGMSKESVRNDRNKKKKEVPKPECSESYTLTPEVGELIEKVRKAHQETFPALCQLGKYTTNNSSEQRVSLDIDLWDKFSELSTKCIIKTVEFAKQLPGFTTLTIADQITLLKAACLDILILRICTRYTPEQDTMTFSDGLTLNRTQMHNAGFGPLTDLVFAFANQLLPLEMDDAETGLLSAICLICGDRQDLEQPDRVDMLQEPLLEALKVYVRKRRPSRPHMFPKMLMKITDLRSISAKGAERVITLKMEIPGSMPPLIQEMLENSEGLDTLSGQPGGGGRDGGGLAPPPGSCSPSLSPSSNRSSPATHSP

[5] = target: Androgen receptor (Homo sapiens) (UniProt P10275); experiment: Agonist activity at human AR expressed in CHO-K1 cells assessed as maximum relative efficacy at 100 uM by PathHunter assay relative to 6alpha-fluorotestosterone; assay type: cell-based
[6] = target: Retinoic acid receptor RXR-beta (Homo sapiens) (UniProt P28702); experiment: Agonist activity at human RXR-beta expressed in U2OS cells assessed as maximum relative efficacy at 100 uM by PathHunter assay relative to 9-cis-retinoic acid; assay type: cell-based
[7] = target: Peroxisome proliferator-activated receptor gamma (Homo sapiens) (UniProt P37231); experiment: Agonist activity at human PPAR-gamma expressed in CHO-K1 cells assessed as maximum relative efficacy at 100 uM by PathHunter assay relative to troglitazone; assay type: cell-based
Sequence of Peroxisome proliferator-activated receptor gamma (Homo sapiens) (P37231 whole entry): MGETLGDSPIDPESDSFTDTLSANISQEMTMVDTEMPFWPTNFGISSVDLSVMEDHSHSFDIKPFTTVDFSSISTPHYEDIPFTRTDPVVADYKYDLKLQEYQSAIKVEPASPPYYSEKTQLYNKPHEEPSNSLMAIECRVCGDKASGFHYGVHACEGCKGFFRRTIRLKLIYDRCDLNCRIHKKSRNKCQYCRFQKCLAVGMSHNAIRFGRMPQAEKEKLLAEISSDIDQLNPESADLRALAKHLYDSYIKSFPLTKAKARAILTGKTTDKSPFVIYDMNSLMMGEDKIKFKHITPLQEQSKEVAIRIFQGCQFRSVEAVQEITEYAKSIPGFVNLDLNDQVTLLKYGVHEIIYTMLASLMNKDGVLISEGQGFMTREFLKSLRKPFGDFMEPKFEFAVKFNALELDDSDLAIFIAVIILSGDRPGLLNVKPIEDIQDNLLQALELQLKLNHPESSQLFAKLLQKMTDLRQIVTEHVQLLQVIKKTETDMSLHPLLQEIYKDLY

[8] = target: Thyroid hormone receptor alpha (Homo sapiens) (UniProt P10827); experiment: Agonist activity at human THR-alpha expressed in CHO-K1 cells assessed as maximum relative efficacy at 100 uM by PathHunter assay relative to control; assay type: cell-based
Sequence of Thyroid hormone receptor alpha (Homo sapiens) (P10827 whole entry): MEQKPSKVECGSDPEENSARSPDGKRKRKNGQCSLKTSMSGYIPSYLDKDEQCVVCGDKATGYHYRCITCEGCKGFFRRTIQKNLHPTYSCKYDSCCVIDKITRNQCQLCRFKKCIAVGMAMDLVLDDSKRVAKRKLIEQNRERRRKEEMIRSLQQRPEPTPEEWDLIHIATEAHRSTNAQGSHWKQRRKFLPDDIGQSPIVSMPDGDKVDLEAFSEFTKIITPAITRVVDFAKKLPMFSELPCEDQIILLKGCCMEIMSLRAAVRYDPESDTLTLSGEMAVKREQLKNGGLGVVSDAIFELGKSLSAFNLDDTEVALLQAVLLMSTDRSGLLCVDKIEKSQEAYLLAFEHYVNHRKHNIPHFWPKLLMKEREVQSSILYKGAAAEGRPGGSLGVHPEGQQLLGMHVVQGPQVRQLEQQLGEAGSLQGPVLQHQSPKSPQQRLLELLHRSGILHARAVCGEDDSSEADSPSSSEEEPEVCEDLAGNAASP

[9] = target: Thyroid hormone receptor beta (Homo sapiens) (UniProt P10828); experiment: Agonist activity at human THR-beta expressed in CHO-K1 cells assessed as maximum relative efficacy at 100 uM by PathHunter assay relative to triiodothyronine ine; assay type: cell-based
Sequence of Thyroid hormone receptor beta (Homo sapiens) (P10828 whole entry): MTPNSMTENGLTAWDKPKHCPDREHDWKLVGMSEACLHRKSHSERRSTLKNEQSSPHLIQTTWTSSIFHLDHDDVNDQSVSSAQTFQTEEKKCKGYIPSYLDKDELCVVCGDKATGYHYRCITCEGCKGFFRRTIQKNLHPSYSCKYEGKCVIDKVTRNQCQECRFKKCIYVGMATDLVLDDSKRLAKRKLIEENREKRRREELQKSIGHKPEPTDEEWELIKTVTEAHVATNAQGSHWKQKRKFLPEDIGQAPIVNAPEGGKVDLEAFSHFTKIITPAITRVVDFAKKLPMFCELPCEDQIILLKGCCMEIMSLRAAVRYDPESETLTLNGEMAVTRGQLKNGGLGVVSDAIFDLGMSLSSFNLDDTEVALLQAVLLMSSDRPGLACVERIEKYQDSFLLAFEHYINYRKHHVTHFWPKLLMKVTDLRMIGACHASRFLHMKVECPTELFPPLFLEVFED

[10] = target: Retinoic acid receptor RXR-alpha (Homo sapiens) (UniProt P19793); experiment: Agonist activity at human RXR-alpha expressed in U2OS cells assessed as maximum relative efficacy at 100 uM by PathHunter assay relative to 9-cis-retinoic acid; assay type: cell-based
[11] = target: Mineralocorticoid receptor (Homo sapiens) (UniProt P08235); experiment: Agonist activity at human MR expressed in CHO-K1 cells assessed as maximum relative efficacy at 100 uM by PathHunter assay relative to aldosterone; assay type: cell-based
[12] = target: Oxysterols receptor LXR-alpha (Homo sapiens) (UniProt Q13133); experiment: Agonist activity at human LXR-alpha expressed in CHO-K1 cells assessed as maximum relative efficacy at 100 uM by PathHunter assay relative to TO901317; assay type: cell-based
[13] = target: Glucocorticoid receptor (Homo sapiens) (UniProt P04150); experiment: Agonist activity at human GR expressed in CHO-K1 cells assessed as maximum relative efficacy at 100 uM by PathHunter assay relative to dexamethasone; assay type: cell-based
Sequence of Glucocorticoid receptor (Homo sapiens) (P04150 whole entry): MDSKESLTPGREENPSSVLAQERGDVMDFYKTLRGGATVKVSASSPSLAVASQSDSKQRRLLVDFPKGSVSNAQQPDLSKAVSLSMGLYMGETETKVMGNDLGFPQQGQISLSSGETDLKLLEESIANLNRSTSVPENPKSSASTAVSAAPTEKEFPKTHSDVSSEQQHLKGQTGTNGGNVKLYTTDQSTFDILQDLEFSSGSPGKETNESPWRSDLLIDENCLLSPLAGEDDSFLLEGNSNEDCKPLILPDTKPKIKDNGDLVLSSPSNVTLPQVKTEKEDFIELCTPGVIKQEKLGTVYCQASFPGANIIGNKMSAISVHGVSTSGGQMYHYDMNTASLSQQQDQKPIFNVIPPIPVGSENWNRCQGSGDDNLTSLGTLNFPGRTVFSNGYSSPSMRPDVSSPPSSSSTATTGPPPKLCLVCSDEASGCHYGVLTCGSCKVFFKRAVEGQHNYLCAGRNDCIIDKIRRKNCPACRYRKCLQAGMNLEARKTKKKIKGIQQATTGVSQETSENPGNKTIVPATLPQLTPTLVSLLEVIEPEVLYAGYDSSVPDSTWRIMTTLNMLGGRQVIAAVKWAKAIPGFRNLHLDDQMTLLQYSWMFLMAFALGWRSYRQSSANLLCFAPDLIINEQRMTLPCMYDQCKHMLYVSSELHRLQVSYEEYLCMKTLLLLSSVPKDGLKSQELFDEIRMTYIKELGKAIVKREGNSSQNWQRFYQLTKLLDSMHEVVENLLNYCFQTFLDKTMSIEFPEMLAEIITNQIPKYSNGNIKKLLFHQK

[14] = target: Estrogen receptor (Homo sapiens) (UniProt P03372); experiment: Agonist activity at human ERalpha expressed in CHO-K1 cells assessed as maximum relative efficacy at 100 uM by PathHunter assay relative to 17-beta-estradiol; assay type: cell-based
[15] = target: Peroxisome proliferator-activated receptor delta (Homo sapiens) (UniProt Q03181); experiment: Agonist activity at human PPAR-delta expressed in CHO-K1 cells assessed as maximum relative efficacy at 100 uM by PathHunter assay relative to L-165,041; assay type: cell-based
Sequence of Peroxisome proliferator-activated receptor delta (Homo sapiens) (Q03181 whole entry): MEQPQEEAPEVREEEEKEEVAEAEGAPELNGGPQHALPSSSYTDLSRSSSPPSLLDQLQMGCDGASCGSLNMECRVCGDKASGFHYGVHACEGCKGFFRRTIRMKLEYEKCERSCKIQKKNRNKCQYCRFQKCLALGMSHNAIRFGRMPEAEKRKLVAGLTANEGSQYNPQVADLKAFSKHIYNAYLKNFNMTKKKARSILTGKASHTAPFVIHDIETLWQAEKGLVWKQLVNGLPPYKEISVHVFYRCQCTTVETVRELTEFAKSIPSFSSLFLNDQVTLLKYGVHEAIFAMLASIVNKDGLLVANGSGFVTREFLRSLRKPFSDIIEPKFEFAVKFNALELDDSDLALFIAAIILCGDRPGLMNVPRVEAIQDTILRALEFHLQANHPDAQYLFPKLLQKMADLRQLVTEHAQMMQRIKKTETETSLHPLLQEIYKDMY

[16] = target: Progesterone receptor (Homo sapiens) (UniProt P06401); experiment: Agonist activity at human PR-alpha expressed in U2OS cells assessed as maximum relative efficacy at 100 uM by PathHunter assay relative to norgestrel; assay type: cell-based
[17] = target: Oxysterols receptor LXR-beta (Homo sapiens) (UniProt P55055); experiment: Agonist activity at human LXR-beta expressed in CHO-K1 cells assessed as maximum relative efficacy at 100 uM by PathHunter assay relative to TO901317; assay type: cell-based
Bile acid receptor = target: T1, Bile acid receptor (Homo sapiens, UniProt Q96RI1)
T1 sequence (Q96RI1 whole entry): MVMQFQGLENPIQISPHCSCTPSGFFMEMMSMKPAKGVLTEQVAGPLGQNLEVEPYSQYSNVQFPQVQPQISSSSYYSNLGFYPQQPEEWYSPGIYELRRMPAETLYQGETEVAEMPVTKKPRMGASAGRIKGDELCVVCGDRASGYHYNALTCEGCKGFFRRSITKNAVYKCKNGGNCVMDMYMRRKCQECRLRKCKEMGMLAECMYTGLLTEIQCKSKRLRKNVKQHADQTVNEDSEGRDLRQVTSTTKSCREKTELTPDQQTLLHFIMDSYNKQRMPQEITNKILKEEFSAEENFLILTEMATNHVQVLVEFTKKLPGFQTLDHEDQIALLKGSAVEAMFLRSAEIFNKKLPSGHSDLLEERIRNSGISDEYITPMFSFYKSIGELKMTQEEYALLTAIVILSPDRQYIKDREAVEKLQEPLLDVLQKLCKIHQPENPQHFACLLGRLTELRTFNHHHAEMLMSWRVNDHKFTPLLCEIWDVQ
Description: Agonist activity at human FXR transfected in CHO-K1 cells coexpressed with beta-galactosidase incubated for 3 to 16 hrs by PathHunter chemiluminescence based assay

[18] = target: T2, Bile acid receptor (Homo sapiens) (UniProt Q96RI1); experiment: Antagonist activity at human FXR expressed in CHO-K1 FXR cells coexpressed with beta-galactosidase at 10 uM preincubated for 60 mins followed by GW4064 addition and measured after 3 to 16 hrs by PathHunter chemiluminescence based assay relative to control; assay type: cell-based; design: scale not given: the % may be the effect or the level left; settings: time 4-17 hrs
T2 sequence (whole entry): T1 sequence (Q96RI1 whole entry)

[19] = Stability in Sprague-Dawley rat plasma at 80 mg/kg, po measured after 3 hrs by RP-HPLC analysis; assay type: ADME, organism-based; settings: in vivo
[20] = target: T2, Bile acid receptor (Homo sapiens); experiment: Antagonist activity at human FXR expressed in CHO-K1 FXR cells coexpressed with beta-galactosidase at 3.3 uM preincubated for 60 mins followed by GW4064 addition and measured after 3 to 16 hrs by PathHunter chemiluminescence based assay relative to control; assay type: cell-based; design: scale not given: the % may be the effect or the level left; settings: time 4-17 hrs
[21] = target: T2, Bile acid receptor (Homo sapiens); experiment: Agonist activity at human FXR transfected in CHO-K1 cells coexpressed with beta-galactosidase at 10 uM incubated for 3 to 16 hrs by PathHunter chemiluminescence based assay relative to control; assay type: cell-based; settings: time 3-16 hrs
[22] = Half life in Sprague-Dawley rat at 5 mg/kg, iv measured up to 24 hrs by HPLC analysis; assay type: ADME, organism-based; settings: in vivo
[23] = Clearance in Sprague-Dawley rat at 5 mg/kg, iv measured up to 24 hrs by HPLC analysis; assay type: ADME, organism-based; settings: in vivo
[24] = AUClast in Sprague-Dawley rat at 5 mg/kg, iv measured up to 24 hrs by HPLC analysis; assay type: ADME, organism-based; design: time < 24 hrs, dose 5 mg/kg, route iv; settings: Sprague-Dawley, in vivo
[25] = Volume of distribution at steady state in Sprague-Dawley rat at 5 mg/kg, iv measured up to 24 hrs by HPLC analysis; assay type: ADME, organism-based; settings: in vivo, read-out: Vdss
[26] = target: T2, Bile acid receptor (Homo sapiens); experiment: Antagonist activity at human FXR expressed in CHO-K1 FXR cells coexpressed with beta-galactosidase at 1.1 uM preincubated for 60 mins followed by GW4064 addition and measured after 3 to 16 hrs by PathHunter chemiluminescence based assay relative to control; assay type: cell-based; design: scale not given: the % may be the effect or the level left; settings: time 4-17 hrs
[27] = Toxicity in CDAHFD-induced nonalcoholic steatohepatitis C57BL/6J mouse model assessed as change in amount of food intake at 80 mg/kg, po administered daily for 4 weeks; assay type: organism-based; settings: in vivo, 672 h
[28] = target: T3, Bile acid receptor (Mus musculus) (UniProt Q60641); experiment: In vivo activation of FXR in CDAHFD-induced nonalcoholic steatohepatitis C57BL/6J mouse model assessed as induction of SHP gene expression at 80 mg/kg, po administered daily for 4 weeks; assay type: functional, organism-based
T3 sequence (whole entry): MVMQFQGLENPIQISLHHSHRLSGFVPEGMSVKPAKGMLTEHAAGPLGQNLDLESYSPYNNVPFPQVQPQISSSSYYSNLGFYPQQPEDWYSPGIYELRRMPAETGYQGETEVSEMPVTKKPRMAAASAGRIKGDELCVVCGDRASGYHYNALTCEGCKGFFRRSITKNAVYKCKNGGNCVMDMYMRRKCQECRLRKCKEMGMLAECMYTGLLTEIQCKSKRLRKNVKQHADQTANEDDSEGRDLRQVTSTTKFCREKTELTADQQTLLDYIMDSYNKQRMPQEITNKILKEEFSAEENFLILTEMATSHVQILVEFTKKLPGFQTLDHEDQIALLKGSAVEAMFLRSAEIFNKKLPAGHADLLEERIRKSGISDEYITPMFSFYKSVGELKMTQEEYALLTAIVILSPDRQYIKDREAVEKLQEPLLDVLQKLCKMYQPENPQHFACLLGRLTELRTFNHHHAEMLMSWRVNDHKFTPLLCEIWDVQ

[29] = target: T3, Bile acid receptor (Mus musculus); experiment: In vivo activation of FXR in CDAHFD-induced nonalcoholic steatohepatitis C57BL/6J mouse model assessed as induction of FGF15 gene expression at 80 mg/kg, po administered daily for 4 weeks; assay type: functional, organism-based
[30] = target: T3, Bile acid receptor (Mus musculus); experiment: In vivo activation of FXR in CDAHFD-induced nonalcoholic steatohepatitis C57BL/6J mouse model assessed as induction of SHP gene expression in liver at 80 mg/kg, po administered daily for 4 weeks; assay type: functional, organism-based
[31] = Toxicity in CDAHFD-induced nonalcoholic steatohepatitis C57BL/6J mouse model assessed as change in body weight at 80 mg/kg, po administered daily for 4 weeks; assay type: organism-based; settings: in vivo, 672 h
[32] = target: T3, Bile acid receptor (Mus musculus); experiment: In vivo activation of FXR in CDAHFD-induced nonalcoholic steatohepatitis C57BL/6J mouse model assessed as induction of OST-alpha gene expression at 80 mg/kg, po administered daily for 4 weeks; assay type: functional, organism-based
[33] = target: T3, Bile acid receptor (Mus musculus); experiment: In vivo activation of FXR in CDAHFD-induced nonalcoholic steatohepatitis C57BL/6J mouse model assessed as induction of IBABP gene expression at 80 mg/kg, po administered daily for 4 weeks; assay type: functional, organism-based
[34] = Toxicity in CDAHFD-induced nonalcoholic steatohepatitis C57BL/6J mouse model assessed as increase in liver wet weight at 80 mg/kg, po administered daily for 4 weeks […]; assay type: organism-based; settings: in vivo, 672 h
[35] = target: T3, Bile acid receptor (Mus musculus); experiment: In vivo activation of FXR in CDAHFD-induced nonalcoholic steatohepatitis C57BL/6J mouse model assessed as reduction in liver fibrosis at 80 mg/kg, po administered daily for 4 weeks by picrosirius red staining method; assay type: functional, organism-based
[36] = target: T3, Bile acid receptor (Mus musculus); experiment: In vivo activation of FXR in […]-induced nonalcoholic steatohepatitis C57BL/6J mouse model assessed as improved glucose tolerance measured up to 120 mins by glucose tolerance test; assay type: functional

Emax [1]: -11%
Emax [2]: 0%
Emax [3]: 0%
Emax [4]: -3%
Emax [5]: -2%
Emax [6]: -4%
Emax [7]: 2%
Emax [8]: -1%
Emax [9]: 1%
Emax [10]: -2%
Emax [11]: 0%
Emax [12]: 0%
Emax [13]: 0%
Emax [14]: 1%
Emax [15]: -3%
Emax [16]: -1%
Emax [17]: 3%
SMILES: COC(=O)/C=C/c1cccc(N(Cc2ccc(-c3ccc(N(C)C)cc3)c(C#N)c2)C(=O)C2CCCCC2)c1

EC50 (Bile acid receptor): > 10000 nM
SMILES: COC(=O)/C=C/c1cccc(N(Cc2ccc3c(c2)CCc2cc(N(C)C)ccc2-3)C(=O)C2CCCCC2)c1

EC50 (Bile acid receptor): > 10000 nM
SMILES: COC(=O)/C=C/c1cccc(N(Cc2ccc3c(ccc4cc(N(C)C)ccc43)c2)C(=O)C2CCCCC2)c1

EC50 (Bile acid receptor): 900 nM
SMILES: CC(C)OC(=O)/C=C/c1cccc(N(Cc2ccc(-c3ccc(N(C)C)cc3)c(C#N)c2)C(=O)C2CCCCC2)c1F

Activity ([18]; filed as antagonist): 96%
SMILES: COc1cccc(Cn2cc(C(=O)Nc3ccc(C)c(S(=O)(=O)N4CCOCC4)c3)c(-c3ccc(C)cc3)n2)c1

Stability [19]: Unstable
Activity [20]: 7%
Activity [21]: 0%
half-life [22]: 14.4 min
clearance [23]: 70 mL/min/kg
AUC(0-t) at 24 h [24]: 1200 ng·h/mL
Vd [25]: 1.4 L/kg
Activity [18]: 26%
Activity [26]: 6%
SMILES: CN(C)c1ccc(-c2ccc(CN(C(=O)C3CCCCC3)c3cc(F)cc(/C=C/C(=O)O)c3)cc2C#N)cc1

EC50 (Bile acid receptor): 2600 nM
SMILES: CN(C)c1ccc(-c2ccc(CN(C(=O)C3CCCCC3)c3cccc(/C=C/C(=O)OCF)c3)cc2C#N)cc1

Activity [28]: Active
Activity [29]: Active
Activity [30]: Active
Activity [32]: Active
Activity [33]: Active
Activity [35]: Active
SMILES: COC(=O)/C=C/c1cccc(N(Cc2ccc(-c3ccc(N(C)C)cc3)cc2)C(=O)C2CCCCC2)c1 [FEXARAMINE]
Activity [27]: Non-Toxic
Activity [31]: Non-Toxic
Activity [34]: Non-Toxic
Activity [36]: Active
